Data on ten compounds can be found in patent US8784774B2, “Labeled molecular imaging agents and methods of use” (General Electric Company, priority 2011, dated 2014).

In assay [1] the target is T1, cystine/glutamate transporter (Mus musculus, UniProt Q9WTR6).
T1 sequence (Q9WTR6 1-502): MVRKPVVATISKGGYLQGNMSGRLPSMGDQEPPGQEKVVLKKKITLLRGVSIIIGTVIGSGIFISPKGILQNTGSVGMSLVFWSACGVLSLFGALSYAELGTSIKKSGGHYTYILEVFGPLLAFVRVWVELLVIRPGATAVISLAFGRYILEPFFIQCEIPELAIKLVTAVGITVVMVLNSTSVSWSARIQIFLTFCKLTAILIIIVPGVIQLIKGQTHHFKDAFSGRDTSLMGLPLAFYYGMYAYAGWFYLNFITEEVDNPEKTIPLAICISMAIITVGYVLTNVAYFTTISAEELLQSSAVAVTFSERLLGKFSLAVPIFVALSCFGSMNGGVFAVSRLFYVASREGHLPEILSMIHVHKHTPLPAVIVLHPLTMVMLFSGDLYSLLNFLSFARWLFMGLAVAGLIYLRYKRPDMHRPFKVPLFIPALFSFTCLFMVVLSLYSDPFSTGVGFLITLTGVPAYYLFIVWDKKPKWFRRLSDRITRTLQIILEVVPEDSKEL
T1 sequence (P10852 1-526 partner): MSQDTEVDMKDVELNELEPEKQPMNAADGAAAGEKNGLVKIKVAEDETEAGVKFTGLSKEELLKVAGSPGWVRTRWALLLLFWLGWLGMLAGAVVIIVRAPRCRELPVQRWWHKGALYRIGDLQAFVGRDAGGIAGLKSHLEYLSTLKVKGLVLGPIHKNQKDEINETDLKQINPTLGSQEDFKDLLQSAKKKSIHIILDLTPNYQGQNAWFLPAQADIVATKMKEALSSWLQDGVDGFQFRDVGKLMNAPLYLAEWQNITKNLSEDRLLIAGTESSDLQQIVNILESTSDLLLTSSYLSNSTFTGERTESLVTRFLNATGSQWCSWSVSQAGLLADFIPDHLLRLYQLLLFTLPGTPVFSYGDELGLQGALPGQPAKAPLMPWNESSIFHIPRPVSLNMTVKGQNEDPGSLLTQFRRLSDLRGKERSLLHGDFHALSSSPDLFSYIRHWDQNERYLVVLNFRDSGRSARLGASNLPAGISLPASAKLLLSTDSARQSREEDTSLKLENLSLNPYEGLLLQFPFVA
The assay can be described thus: cell-based.

Assay [2] addresses T1, cystine/glutamate transporter. The assay can be described thus: Screen of unlabeled compounds for competition with 3H-L-ASU uptake (Example 3). Particulars: read-out: inhibition of ^3H-L-ASU uptake. Type of assay: cell-based. More on the design: endogenous in cells.
Assay [3] shares this target. The assay can be described thus: 3H-L-Asu uptake in EL4 cells with or without DEM and with transporter inhibitors (Example 1). The assay is classed as cell-based. The arrangement: endogenous in cells; host or cells: EL4 mouse lymphoma cells, with or without diethylmaleate (DEM) treatment. Here is the method: Mouse lymphoma cells (EL4) were cultured with or without 100 μM diethylmaleate for 24 hours, washed in phosphate buffered saline (PBS) divided into aliquots of 5×10^6 cells and incubated with [^3H]-L-2-aminosuberic acid (^3H-L-Asu) without or with inhibitors of the cystine/glutamate transporter for 15 minutes. Cells were then washed 3 times and collected in a 1 ml volume of 1M HCl and transferred to a scintillation vial. 12 ml of Ready Gel scintillation fluid was added to each sample and cell uptake was determined by scintillation counting using a Perkin Elmer Tri-Carb Liquid Scintillation Analyzer.

Assay [4] has the same target. Particulars: read-out: IC50 for inhibition of ^3H-L-GLU uptake; DEM treated EL4 cells; separate set of experiments.
Assay [5] has the same target. The assay can be described thus: Uptake of labeled compounds in DEM treated EL4 cells with or without SSZ (Example 2). More on the design: endogenous in cells; host or cells: EL4 mouse lymphoma cells, with or without diethylmaleate (DEM) treatment. Particulars: for inhibition of uptake by SSZ: 500 μM SSZ; for Uptake relative to ^3H-GLU: 0.33 μCi; for SSZ inhibition (%): uptake of the labeled compound with 500 μM SSZ. Type of assay: cell-based. Here is the method:
5×10^6 DEM treated EL4 cells were incubated with 0.33 μCi of either [^3H]-L-ASU, [^3H]-L-GLU or [^35S]-L-Cystine (with or without 500 μM SSZ) for 15 minutes before being washed three times in PBS and uptake was analyzed via liquid scintillation counting.

For assay [6], the system named is EL4 xenograft tumor tissue slices. The assay can be described thus: Ex vivo uptake in EL4 xenograft tumor tissue slices (Example 5). The assay is classed as cell-based, mouse. Particulars: 0.33 μCi, 30 minutes, agents matched for specific activity and radioactive dose. Here is the method:
We compared uptake of ^3H-ASU in tumor tissue ex vivo with uptake of ^3H-FDG, a tritiated form of the common ^18F-FDG imaging agent. the two agents were matched for specific activity and radioactive dose. 0.33 μCi of agent was incubated with equivalent aliquots of EL4 xenograft tumor tissue slices for 30 minutes (tumors processed with three passes on a McIlwain Tissue chopper, at 500 um steps, and washed with fresh buffer). Slices where washed three times, lysed with 1M HCl and evaluated by scintillation counting.

[7] abbreviates: unlabeled competitor at high concentration (2.5 mM).

Broadly, the IC50 is the concentration at which inhibition is half-maximal. For orientation: inhibition means the share of the control response that was lost under treatment.

Like-named read-outs stand apart in the source and are kept apart here.

In turn, `N[C@H](CCCCCC(=O)O)C(=O)O` [D-ASU] returned a concentration for half-maximal inhibition (IC50) in assay [1] of 36.2 µM. Also, the inhibition at 2500 µM in assay [2] is above 90%.

With `N[C@H](CCC[C@H](N)C(=O)O)C(=O)O` [DiAPA, diaminopimelic acid], in assay [2] (setting [7]), the inhibition at 2500 µM was below 45%.

`N[C@@H](CCCC(=O)O)C(=O)O` [L-AAA, L-aminoadipic acid] yielded an IC50 in assay [1] of 23.9 µM. Further, the inhibition at 2500 µM in assay [2] (setting [7]) is above 90%.

With `N[C@@H](CCCCCC(=O)O)C(=O)O` [L-ASU, L-aminosuberic acid], the inhibition at 2500 µM is above 95% in assay [3] (EL4, read-out: inhibition of ^3H-L-Asu uptake) and above 90% in assay [2]. Besides, in assay [1], the IC50 amounted to 2.9 µM.

Consider `N[C@@H](CCC(=O)O)C(=O)O` [L-GLU, L-glutamate], for which the IC50 in assay [4] was found to be 4.7 µM.

With `[3H]C(CCC(=O)O)C([3H])C[C@H](N)C(=O)O` (stereo partly drawn) [^3H-Asu, (S)-2-amino 4,5-^3H-suberic acid], the “^3H-L-Asu uptake in cells exposed to oxidative stress” value in assay [3] (EL4 cells, 100 μM diethylmaleate (DEM) 24 hours vs without, 15 minutes incubation) was “increased”. For the same compound, in assay [5], the “inhibition of uptake by SSZ” value was “almost completely inhibited”. Also, in assay [5] (15 minutes), the “Uptake relative to ^3H-GLU” value is 447.0 (±22.1), the “uptake efficiency relative to L-GLU uptake” value was “approximately 4.5 times” and the “SSZ inhibition (%)” value is 95.8 (±0.17) %. Further, the “more uptake than ^3H-FDG” value in assay [6] came out at 70%.

Turning to `N[C@@H](CSSC[C@H](N)C(=O)O)C(=O)O` [^35S-Cystine, [^35S]-L-Cystine], in assay [5], the “inhibition of uptake by SSZ” value is recorded as “approximately ⅔”. In addition, in assay [5] (15 minutes), the “Uptake relative to ^3H-GLU” value is listed as 168.8 (±2.0) and the “SSZ inhibition (%)” value is 68.7 (±1.76) %.

`O=C(O)CCCCCCC(=O)O` [suberic acid]: the inhibition at 2500 µM in assay [2] (setting [7]) is below 45%.

The compound `O=C(O)c1cc(/N=N/c2ccc(S(=O)(=O)Nc3ccccn3)cc2)ccc1O` [sulfasalazine] showed an inhibition at 500 µM in assay [3] (inhibitor 500 μM, EL4 cells, 15 minutes) above 95%.

Turning to `N[C@@H](CCC(=O)NCC(=O)O)C(=O)O` [γ-glutamyl-glycine], the inhibition at 2500 µM in assay [2] (setting [7]) was below 45%.
